Reference: patent publication US9125930B2, “EGFR aptamer inhibitor for use in therapy and diagnosis” (CONSIGLIO NAZIONALE DELLE RICERCHE, priority 2010, dated 2015)

Tests used:
Calu1 cells = test: Binding on Calu1 cells; set-up: species or system human; conditions: EGFR-positive; 100 nM
Description: (§1) Binding experiments were performed with 5′-[^32P]-labeled RNA. For labeling 2′-F-Py RNAs were 5′-end dephosphorylated using bacterial alcaline phosphatase (Invitrogen, Carlsbad, Calif.) before [^32P]-5′-end-labeled using T4 kinase (Invitrogen) and γ-[^32P]-ATP (6×10^3 Ci/mmol, GE Healthcare Bio-Sciences, Uppsala, Sweden) according to the supplier's instructions.
(§2) For binding experiments on cells, 3.5×10^4 cells were plated in 24-well plates in triplicate and were incubated with CL4 42-81 aptamer the scrambled sequence used as a negative control at 100 nM concentration in 200 μl of DMEM serum free for 20 min at RT in the presence of 100 μg/ml polyinosine as a nonspecific competitor (Sigma, St. Louis, Mo.). After five washings with 500 μl DMEM, bound sequences were recovered in 300 μl of SDS 1%, and the amount of radioactivity recovered was counted.

H460 cells = test: Binding on H460 cells; set-up: species or system human; conditions: low level of EGFR; 100 nM
Description: as §1, §2

glioma U87MG = test: Binding on U87MG cells; set-up: species or system human; conditions: no or very low expression of EGFR; 100 nM
Description: as §1, §2

A431 tumors = test: Tumor growth in A431 mouse xenograft; format: in vivo; conditions: 200 pmoles intratumoral
Description: Athymic nude mice (nu/nu) were maintained in a sterile environment according to guidelines for Animal Care. Mice were inoculated with either 3×10^6 (in 100 μl) in vitro propagated A431 cells subcutaneously injected into each flank. Approximately 24 non-necrotic tumors for each tumor type, of about 1 cm in diameter, were randomly divided into three groups of eight mice per treatment group as follows: group 1, no treatment; group 2, treated with scrambled RNA as a negative control (200 pmols/injection); group 3, treated with CL4 42-81 (200 pmols/injection). Compounds were injected intra-tumorally in 100-1 μl volumes three times a week for two weeks. Day 0 marks the first day of injection. The aptamers may also be administered systemically, in particular when optimized by addition of polyethylene glycol (PEG).
The volume injections are small enough to preclude the compounds being forced inside the cells due to a nonspecific high-pressure injection. Tumors were measured every 3 days with calipers in three dimensions. The following formula was used to calculate tumor volume: VT=(W×L×H)×0.5236 (W, the shortest dimension; L, the longest dimension; H, the intermediate dimension). The growth curves are plotted as the means tumor volume±s.e.m. Statistical analysis of tumor size data was conducted using a one-way ANOVA. A P-value of 0.05 or less was considered to indicate a significant difference. […]

breast MCF7 = test: Binding on MCF7 cells; set-up: species or system human; conditions: no or very low expression of EGFR; 100 nM
Description: as §1, §2

EGFR [1] = target: T1, EGFR (Homo sapiens, UniProt P00533); test: Immunoblot of pEGFR in A549 xenograft tumor lysates; format: in vivo, mouse; set-up: from tissue; host or cells: A549 xenograft tumours excised from athymic CD-1 nude mice; conditions: pooled tumor lysates
Description: (§3) FIG. 8. (A) A549 cells (2,000 cells/well in 24-well plates) were treated for 24 h or 48 h with CL4 42-81 or CL4 scrambled (200 nM-final concentration) and proliferation was determined by [^3H]-thymidine incorporation. Vertical bars indicate the standard deviation values. […] Day 0 marks the first day of injection. Data are shown as means±s.e.m. (n=8 tumors). (C) Three tumors per group selected randomly were excised, lysed, and the pooled lysates were immunoblotted with anti-pEGFR, anti-EGFR, anti-caspase-3, anti-cleaved caspase-8 and anti-αtubulin antibodies, as indicated. Molecular weights of indicated proteins are reported. (D) Cell lysates as in (C) were analyzed by caspase-3 fluorimetric assays.
(§4) Athymic CD-1 nude mice (nu/nu) were housed in a highly controlled microbiological environment, thus to guarantee specific pathogen free conditions. Mice were injected subcutaneously with 3×10^6 (in 100 μl) in vitro propagated A549. Sixteen non-necrotic tumors of about 0.5 cm in diameter were randomly divided into two groups of eight mice as follows: group 1, CL4 scrambled-treated; group 2, CL4 42-81-treated. Aptamers (200 pmols/injection) were injected intra-tumorally in 100-1 μl volumes three times a week for 16 days. Tumors were measured every 2 days.

caspase-8 = test: Caspase-8 activity assay in A549 cells; format: cell-based, human; conditions: A549, 200 nM, 6 hs
Description: A549 cells were treated with 200 nM CL4 42-81 or the scrambled aptamer for 6 hs. To determine caspase activity cell lysates (50 μg) were incubated at 37° C. for 1 h with 50 μM of a specific fluorometric substrate (Ac-DEVD-AFC for caspase-3, Ac-IETD-AFC for caspase-8, both from Alexis Bichemicals, San Diego, Calif.). Cleavage of the fluorometric substrate were determined using a Fluorometer, with excitation at 400 nm and emission at 505 nm wavelengths.

caspase-3 = test: Caspase-3 in A549 xenograft tumor lysates; format: in vivo, mouse; conditions: pooled tumor lysates
Description: as §3, §4

EGFR [2] = target: T1, EGFR; test: Immunoblot of EGF-dependent EGFR phosphorylation in A549 cells; format: cell-based; set-up: endogenous in cells; host or cells: A549; conditions: 200 nM aptamer, following 5 min of EGFR stimulation
Description: […] The aptamers were subjected to a short denaturation-renaturation step (85° C. for 5 min, snap-cooled on ice for 2 min, and allowed to warm up to 37° C.) before each treatment. To prepare cell extracts, cells were washed twice in ice-cold PBS, and lysed in buffer A (50 mM Tris-HCl pH 8.0 buffer containing 150 mM NaCl, 1% Nonidet P-40, 2 mg/ml aprotinin, 1 mg/ml pepstatin, 2 mg/ml leupeptin, 1 mM Na3VO4). Protein concentration was determined by the Bradford assay using bovine serum albumin as the standard. The cell lysates were subjected to SDS-PAGE. Gels were electroblotted into polyvinylidene difluoride membranes (Millipore Co., Bedford, Mass.), and filters were probed with the indicated primary antibodies: anti-EGFR and anti-phospho-EGFR (Tyr1062), anti-phospho-44/42 MAP kinase (E10) (also indicated as p-Erk), anti-phospho-Akt, anti-Akt and anti-phospho-STAT3 (Tyr705), anti-ErbB2 (all from Cell Signaling, Beverly, Mass., United States); anti-Erk1, anti-EGFR, anti-ErbB3, anti-ErbB4 (C-16) (Santa Cruz Biotechnology, California, United States); anti-α-αtubulin (DM 1A) (Sigma, St. Louis, Mo.).
Proteins were visualized with peroxidase-conjugated secondary antibodies using the enhanced chemiluminescence system (GE Healthcare Bio-Sciences, Uppsala, Sweden). […]

In the case of “CL4 42-81: 2′-fluoropyrimidine nuclease-resistant RNA aptamer of 39 nt: 5′ GCCUUAGUAACGUGCUUUGAUGUCGAUUCGACAGGAGGC 3′ (SEQ ID No. 1) (2'-fluoro at CU, RNA at AG, backbone not given here)”, the “binding on Calu1 cells” value (Calu1 cells) is reported as “binds”, the “binding on H460 cells” value (H460 cells) is reported as “does not bind” and the “binding on U87MG cells” value (glioma U87MG) is reported as “does not bind”. The “tumor growth from day 9 to day 15” value (A431 tumors; three times a week) was “stopped to grow and was reduced in volume”, the tumor volume (A431 tumors; three times a week for two weeks) was “pronounced reduction in tumor volume” and the “binding on MCF7 cells” value (breast MCF7) was “does not bind”. For the same substance, the “extent of EGFR tyrosine phosphorylation in xenograft tumors” value (EGFR [1]) was “decreases”, the “activation of caspase-8” value (caspase-8) was “strongly induce activation” and the “caspase-3 activation in xenograft tumors” value (caspase-3) was “activates”. The “inhibition of EGF-dependent phosphorylation of EGFR” value (EGFR [2]) was 60%.
